{"source": "patent US10793885B2", "about": "“Compositions and methods for making noscapine and synthesis intermediates thereof” (priority 2013, dated 2020)", "key": {"NOS": {"target": "T1, NOS (Papaver somniferum, UniProt I3PLR3)", "T1 construct": "His-tag (pRSETA leader) (N); made in house; host or cells: Escherichia coli Rosetta (DE3) pLysS", "T1 sequence (I3PLR3 1-348)": "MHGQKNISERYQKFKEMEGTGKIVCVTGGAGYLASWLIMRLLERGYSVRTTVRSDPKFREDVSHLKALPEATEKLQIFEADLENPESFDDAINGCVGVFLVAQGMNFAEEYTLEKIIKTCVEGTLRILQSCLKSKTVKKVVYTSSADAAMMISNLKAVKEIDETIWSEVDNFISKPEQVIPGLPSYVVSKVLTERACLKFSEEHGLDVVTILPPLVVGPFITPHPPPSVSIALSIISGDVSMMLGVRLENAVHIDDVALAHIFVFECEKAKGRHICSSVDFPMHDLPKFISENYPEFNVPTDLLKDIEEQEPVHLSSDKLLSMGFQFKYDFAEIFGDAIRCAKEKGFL", "assay_type": "biochemical, opium poppy (Papaver somniferum)", "settings": "for Km: cofactor of NOS for the conversion of narcotine hemiacetal to noscapine; for acceptance as substrate / conversion by NOS: recombinant NOS, product detection by LC-MS/MS", "from_the_text": "The full-length cDNA sequence of CL1327Contig1 (see: Example 2) was cloned into vector pRSETA in-frame with an N-terminal His-tag and expressed in E. coli as follows. The NOS coding region was amplified from opium poppy stem cDNA using the following primer set: 5′-[…]-3′ (SEQ ID NO: 601) and 5′-[…]-3′ (SEQ ID NO: 602). The NOS cDNA was cloned into the expression vector pRSETA (Invitrogen) at the SacI and KpnI restriction sites in frame with an N-terminal His-tag sequence. The expression construct was transformed into Escherichia coli strain Rosetta (DE3) pLysS (EMD Chemicals, Darmstadt, Germany). Expression of the recombinant gene was induced overnight with 1 mM isopropyl β-D-thiogalactoside (IPTG) at room temperature. Cells were harvested by centrifugation and sonicated in a buffer containing 50 mM sodium phosphate, pH 7.0, 300 mM NaCl, and 10 mM β-mercaptoethanol. After centrifugation at 20,000 g for 10 min, the supernatant was loaded onto Talon cobalt affinity resin (Clontech, Mountain View, Calif.). Purification was performed according to the manufacturer's instruction. The purified, recombinant protein was desalted using an Amicon centrifugal filter −30K (Millipore, Billerica, Mass.) and stored in a buffer containing 50 mM Tris-HCl, pH 8.0, 1 mM EDTA, 1 mM β-mercaptoethanol, and 10% (v/v) glycerol. Protein concentration was determined by the Bradford assay (Bio-Rad, Hercules, Calif.) using bovine serum albumin as the standard.\nThe purified recombinant NOS enzyme (see: Example 4) was assayed using either narcotine hemiacetal as the substrate (in the presence of either NAD^+ or NADP^+ as cofactor) for dehydrogenase activity, or with noscapine as the substrate (in the presence of NADH or NADPH as the cofactor) for reductase activity. LC-MS/MS was used to identify and quantify product formation (FIG. 7). […] LC-MS/MS and CID spec\nIn addition to narcotine hemiacetal and noscapine, NOS was also assayed with several other BIAs that could potentially serve as substrates for dehydrogenase/reductase reactions."}, "CYP82Y1": {"target": "CYP82Y1 (Papaver somniferum, UniProt I3PLR1, R101S)", "sequence (I3PLR1 whole entry R101S)": "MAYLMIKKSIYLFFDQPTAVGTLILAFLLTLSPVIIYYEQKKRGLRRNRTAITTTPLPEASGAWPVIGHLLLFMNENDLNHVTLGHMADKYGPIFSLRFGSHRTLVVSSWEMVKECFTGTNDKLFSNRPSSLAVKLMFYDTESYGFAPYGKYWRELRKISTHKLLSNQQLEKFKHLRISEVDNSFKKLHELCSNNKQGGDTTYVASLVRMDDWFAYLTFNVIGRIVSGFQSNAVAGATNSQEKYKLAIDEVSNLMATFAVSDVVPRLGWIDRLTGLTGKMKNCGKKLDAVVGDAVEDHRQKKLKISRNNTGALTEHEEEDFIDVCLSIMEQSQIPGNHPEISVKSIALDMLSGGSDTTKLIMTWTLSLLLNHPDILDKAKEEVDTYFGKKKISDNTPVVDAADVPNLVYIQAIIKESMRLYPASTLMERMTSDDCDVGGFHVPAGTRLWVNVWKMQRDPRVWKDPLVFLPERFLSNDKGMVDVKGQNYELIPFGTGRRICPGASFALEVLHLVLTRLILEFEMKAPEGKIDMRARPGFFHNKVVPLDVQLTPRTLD", "settings": "yeast microsomes, 500 μM NADPH, pH 7.5, 30° C."}, "CYP82X1": {"target": "T2, CYP82X1 (Papaver somniferum, UniProt I3V6B7)", "T2 construct": "The full-length coding region of CYP82X1 was amplified using cDNA derived from total stem RNA of the Bea's Choice chemotype; FLAG; made in house; host or cells: Saccharomyces cerevisiae YPL 154C:Pep4, microsomal fraction", "T2 sequence (I3V6B7 1-540)": "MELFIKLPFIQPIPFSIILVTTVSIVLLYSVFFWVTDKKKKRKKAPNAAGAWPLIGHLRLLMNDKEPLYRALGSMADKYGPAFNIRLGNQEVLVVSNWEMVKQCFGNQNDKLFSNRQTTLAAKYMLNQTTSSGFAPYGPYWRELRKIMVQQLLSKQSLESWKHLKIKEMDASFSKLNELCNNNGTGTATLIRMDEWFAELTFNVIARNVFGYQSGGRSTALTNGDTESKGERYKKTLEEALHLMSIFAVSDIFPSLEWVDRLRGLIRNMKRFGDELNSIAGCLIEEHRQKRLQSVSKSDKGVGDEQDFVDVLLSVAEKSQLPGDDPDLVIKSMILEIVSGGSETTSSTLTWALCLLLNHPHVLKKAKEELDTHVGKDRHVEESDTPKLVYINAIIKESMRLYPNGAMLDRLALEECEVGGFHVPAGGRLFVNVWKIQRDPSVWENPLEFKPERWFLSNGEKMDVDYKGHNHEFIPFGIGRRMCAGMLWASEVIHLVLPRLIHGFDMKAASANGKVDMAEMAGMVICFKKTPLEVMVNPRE", "test": "In vitro enzyme assay with yeast microsomal fractions containing CYP82X1 (CPR/82X1)", "assay_type": "biochemical", "settings": "yeast microsomes (CPR/82X1), extracted ion chromatograms, FIG. 13", "from_the_text": "(§1) The full-length coding region of CYP82X1 was amplified using cDNA derived from total stem RNA of the Bea's Choice chemotype using Takara Ex Taq DNA polymerase (Fisher Scientific, Ottawa, Canada), and using a primer 5′-[…]-3′ (SEQ ID NO: 607) and reverse primer 5′-[…]-3′ (SEQ ID NO: 608). Owing to problems with heterologous expression in yeast, CYP82X2 was synthesized with the first 60 N-terminal amino acids replaced with the first 43 N-terminal amino acids from the lettuce cytochrome P450 germacrene A oxidase Nguyen, D. T. et al. J. Biol. Chem. 285, 16588-16598 (2010). For heterologous expression of Flag-tagged CYPs in yeast (Saccharomyces cerevisiae), the full-length coding regions of CYP82X1 and CYP82X2 were inserted into the NotI and SpeI restriction sites of the dual plasmid pESC-leu2d::CPR Ro, D.-K., Ouellet, M., Paradise, E. M., Burd, H., Eng, D., Paddon, C. J., Newman, J. D., & Keesling, J. D. BMC Biotech. 8, 83 (2008) yielding pESC-Leu2d::CYP82X1/CPR and pESC-Leu2d::CYP82X2/CPR. The protease-deficient yeast strain YPL 154C:Pep4 was transformed with pESC-Leu2d::CYP82X1/CPR and pESC-Leu2d::CYP82X2/CPR. Yeast culture, microsome preparation, and immunoblot analysis were performed as described previously Dang, T.-T. T. & Facchini, P. J. J. Biol. Chem. 289, 2013-2026 (2014). For heterologous expression of CXE1, CXE2, and AT1, corresponding open reading frames were amplified using cDNA derived from total stem RNA of the Bea's Choice chemotype and cloned in-frame an N-terminal His-tag sequence in the Escherichia coli expression vector pRSETA (Invitrogen, Carlsbad, Calif.). CXE1 and CXE2 were individually inserted into the SacI and HindIII restriction sties, whereas AT1 was inserted into the KpnI and HindIII sites, of pRSETA using a primer 5′-[…]-3′ (SEQ ID NO: 609) and reverse primer 5′-[…]-3′ (SEQ ID NO: 610). […] Microsomal fractions containing recombinant CYP82X1 or CYP82X2 were detected using a-FLAG antibodies, whereas recombinant CPR was detected using α-c-Myc antibodies (FIG. 12 A). […]"}, "CYP82X2": {"target": "T3, CYP82X2 (UniProt D5J9U8+I3PLR0)", "T3 construct": "the full-length coding regions of CYP82X1 and CYP82X2 were inserted into the NotI and SpeI restriction sites; FLAG; made in house; host or cells: Saccharomyces cerevisiae YPL 154C:Pep4, microsomal fraction", "T3 sequence (D5J9U8+I3PLR0 with tags, fused parts or gaps)": "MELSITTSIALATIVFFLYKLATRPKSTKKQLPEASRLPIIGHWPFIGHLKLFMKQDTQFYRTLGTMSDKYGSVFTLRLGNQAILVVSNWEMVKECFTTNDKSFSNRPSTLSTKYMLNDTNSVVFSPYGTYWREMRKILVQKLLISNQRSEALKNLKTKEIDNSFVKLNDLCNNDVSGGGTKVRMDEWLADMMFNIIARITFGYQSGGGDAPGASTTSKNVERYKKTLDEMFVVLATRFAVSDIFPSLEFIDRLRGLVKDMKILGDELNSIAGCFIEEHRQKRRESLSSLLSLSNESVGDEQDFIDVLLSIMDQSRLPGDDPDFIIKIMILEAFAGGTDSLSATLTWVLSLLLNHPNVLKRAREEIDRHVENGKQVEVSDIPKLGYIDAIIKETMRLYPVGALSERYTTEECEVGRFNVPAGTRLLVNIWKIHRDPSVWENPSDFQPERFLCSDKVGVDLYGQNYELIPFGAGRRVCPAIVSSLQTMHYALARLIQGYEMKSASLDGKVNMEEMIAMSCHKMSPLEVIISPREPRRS", "test": "In vitro enzyme assay with yeast microsomal fractions containing CYP82X2 (CPR/82X2)", "assay_type": "biochemical, Papaver somniferum", "settings": "yeast microsomes (CPR/82X2), extracted ion chromatograms, FIG. 13", "from_the_text": "as §1"}}}
{"smiles": "NC(=O)c1ccc[n+]([C@@H]2O[C@H](COP(=O)([O-])OP(=O)(O)OC[C@H]3O[C@@H](n4cnc5c(N)ncnc54)[C@H](O)[C@@H]3O)[C@@H](O)[C@H]2O)c1", "note": "[NAD^+]", "values": [{"measurement": "Km", "setting": "NOS", "result": 33.1, "unit": "µM"}]}
{"smiles": "C[N@@+]12CCc3cc4c(cc3[C@@H]1Cc1ccc3c(c1C2)OCO3)OCO4", "note": "[N-methylstylopine, reference compound]", "values": [{"measurement": "conversion as substrate by CYP82Y1", "setting": "CYP82Y1", "result": "give rise to 1-hydroxy-N-methylstylopine"}]}
{"smiles": "COc1ccc2c(c1OC)C[N+]1(C)CCc3cc4c(c(O)c3C1C2OC(C)=O)OCO4", "note": "[(S)-1-hydroxy-13-O-acetyl-N-methylcanadine]", "values": [{"measurement": "conversion as substrate by CYP82X1", "setting": "CYP82X1", "result": "converting (S)-1-hydroxy-13-O-acetyl-N-methylcanadine (m/z 428) to (S)-1,8-dihydroxy-13-O-acetyl-N-methylcanadine"}, {"measurement": "conversion as substrate by CYP82X2", "setting": "CYP82X2", "result": "showed no activity"}]}
{"smiles": "COc1ccc2c(c1OC)C(O)O[C@@H]2[C@H]1c2c(cc3c(c2O)OCO3)CCN1C", "note": "(stereo partly drawn) [narcotoline hemiacetal]", "values": [{"measurement": "acceptance as substrate / conversion by NOS", "setting": "NOS", "result": "yielded a new compound consistent with narcotoline"}]}
{"smiles": "COC1=C[C@]23CCN(C)[C@H](Cc4ccc(OC)c(O)c42)C3=CC1=O", "note": "[salutaridine]", "values": [{"measurement": "acceptance as substrate / conversion by NOS", "setting": "NOS", "result": "none were accepted by NOS"}]}
{"smiles": "COc1ccc2c(c1OC)C[N+]1(C)CCc3cc4c(c(O)c3C1C2)OCO4", "note": "[(S)-1-hydroxy-N-methylcanadine]", "values": [{"measurement": "conversion as substrate by CYP82X1", "setting": "CYP82X1", "result": "4-O-demethylmacrantaldehyde"}, {"measurement": "conversion as substrate by CYP82X2", "setting": "CYP82X2", "result": "yielding (S)-1,13-dihydroxy-N-methylcanadine"}]}
{"smiles": "c1cc2c(c3c1C[C@H]1c4cc5c(cc4CCN1C3)OCO5)OCO2", "note": "[stylopine]", "values": [{"measurement": "acceptance as substrate / conversion by NOS", "setting": "NOS", "result": "none were accepted by NOS"}]}
{"smiles": "COc1ccc2c3c1O[C@H]1[C@@H](O)C=C[C@H]4[C@@H](C2)N(C)CC[C@@]341", "note": "[codeine]", "values": [{"measurement": "acceptance as substrate / conversion by NOS", "setting": "NOS", "result": "none were accepted by NOS"}]}
{"smiles": "COc1ccc2c3c1O[C@H]1C(=O)C=C[C@H]4[C@@H](C2)N(C)CC[C@]314", "note": "[codeinone]", "values": [{"measurement": "acceptance as substrate / conversion by NOS", "setting": "NOS", "result": "none were accepted by NOS"}]}
{"smiles": "COc1ccc2c(c1OC)C[N+]1(C)CCc3cc4c(cc3C1C2)OCO4", "note": "[(S)—N-methylcanadine]", "values": [{"measurement": "conversion as substrate by CYP82Y1", "setting": "CYP82Y1", "result": "yielding 1-hydroxy-N-methylcanadine"}]}
{"smiles": "COc1ccc2c(c1OC)C(O)OC2C1c2c(cc3c(c2OC)OCO3)CCN1C", "note": "(stereo not drawn) [narcotine hemiacetal]", "values": [{"measurement": "affinity of NOS for the alkaloid substrate and corresponding catalytic efficiency", "setting": "NOS; in the presence of NAD^+ compared with NADP^+ as the cofactor", "result": "significantly higher"}, {"measurement": "acceptance as substrate / conversion by NOS", "setting": "NOS", "result": "able to oxidize the hydroxyl group on the hemiacetal ring"}]}
{"smiles": "NC(=O)c1ccc[n+]([C@@H]2O[C@H](COP(=O)([O-])OP(=O)(O)OC[C@H]3O[C@@H](n4cnc5c(N)ncnc54)[C@H](OP(=O)(O)O)[C@@H]3O)[C@@H](O)[C@H]2O)c1", "note": "[NADP^+]", "values": [{"measurement": "Km", "setting": "NOS", "result": 1250, "unit": "µM"}]}
